Read-outs that look alike come from different tables or passages of the source.
Experiments:
U87MG cells [1] = experiment: Intracellular ROS generation, CellROX Deep Red, flow cytometry; format: cell-based, human; details: 15 μM, 24 h, green light 515 nm, 13.1 J cm–2, normoxia, n = 2
Procedure: Figure 3 Light activation mechanism in cells treated with Ru-peptide conjugates. (a) Emission intensity of cells treated with Ru-p(HH), Ru-p(MH), or Ru-p(MM) (15 μM, 24 h) and irradiated with green light (520 nm, 13.1 J cm^–2) for different times: 0–1200 s, as determined by flow cytometry using a PC5.5 filter (ex/em = 488/650 ± 50 nm). (b) Intracellular ROS generation assay in normoxic (N) and hypoxic (H) U87MG cells according to FACS analysis using nonselective ROS probe CellROX Deep Red Reagent, after treatment with Ru-p(HH), Ru-p(MH), Ru-p(MM), cisplatin, Rose Bengal, or [Ru(Ph2phen)2Cl2] (labeled as Ru-Cl2) (15 μM, 24 h), in the dark and after light irradiation (515 nm, 13.1 J cm^–2). tBHP (250 μM, 1 h) was used as a positive control for ROS generation. Error bars: SEM, n = 2. (c) Slopes of the UV–vis absorption of AMDA (for ^1O2, blue bars) or emission intensity of DHE (for O2^•–, red bars) vs irradiation time (see Figures S26–S28) after being incubated with Ru-p(HH), Ru-p(MH), Ru-p(MM), Ru-Cl2, or Rose Bengal (20 μM) and irradiated with green light in Opti-MEM solution. (d) Percentage of alive (−/−), early apoptotic (−/+), late apoptotic (+/+) and necrotic (+/−) U87MG cells costained with Apopxin Deep Red Indicator and Nuclear Green DCS1 as quantified by flow cytometry, after treatment with Ru-p(HH), Ru-p(MH), Ru-p(MM), cisplatin or Rose Bengal in the dark (D) and after light irradiation (L, DLI = 24 h, 515 nm, 13.1 J cm^–2); drug concentration: 20 μM, DLI = 24 h).
Second, CellROX Deep Red, a nonspecific molecular probe for ROS formation, was used to quantify the photodynamic behaviors by each of the three complexes in U87MG cells,.[22] […]
The generation of ROS (reactive oxygen species) in U87MG cells was measured using a ROS deep red fluorescence indicator (Abcam, ab186029). […] The levels of intracellular ROS were then determined using a CytoFLEX flow cytometer using the APC-A (638 nm excitation, 660/10 nm emission) channel. […]

[2] = reference value; cited from earlier work
From the text: Table 1 Photochemical Data for Ru-Peptide Conjugates | column: complex

[3] = not given; remark: listed apart in the source
[4] = not given; remark: listed apart in the source
U87MG cells [5] = experiment: 2D cytotoxicity assay, SRB end point, dark vs green light; format: cell-based, human; details: normoxia (21% O2); for EC50: SRB at 96 h
Procedure: To test the in vitro phototoxicity of the three complexes toward 2D monolayer U87MG cells, a cell viability assay was undertaken as follows: the cells were seeded at t = 0, treated at t = 24 h, irradiated with green light (520 nm, 13.1 J cm^–2) at t = 48 h without refreshing the medium (drug-to-light interval = 24 h), further incubated in the dark for 48 h, and counted at t = 96 h with a sulforhodamine B (SRB) cell quantification end point assay.[45] Half-maximal effective concentrations (EC50 in μM), compared to untreated control, and photoindex (PI) values, defined as EC50,dark/ EC50,light, were calculated to characterize the toxicity and light activation of each Ru-peptide conjugate. […] However, a much stronger discrepancy appeared in the 2D toxicity data in hypoxic conditions (Table 2, Figure S22b). The phototherapeutic properties of Ru-p(HH) in the green light group were the poorest, leading to a PI of only 1.3. […] Ru-p(MH) stood somewhere between these values with a PI of 1.9 under hypoxia. […] The loss of activity of Ru-p(HH) under hypoxia is consistent with the hypothesis of a PDT pathway, while Ru-p(MM) keeping appreciable phototoxicity under hypoxia better fits the hypothesis of a PACT cell-killing mechanism.
U87MG cells (6000) were seeded in 96-well plates (Sarstedt, 83.3924), and each well contained 100 μL of Opti-MEM (Gibco complete medium 11058-021, supplemented with 2.5% v/v fetal calf serum (FCS), 0.2% v/v penicillin/streptomycin (P/S), and 1% v/v glutamine). They were then placed either in a normoxic (21% O2) or hypoxic (1.0% O2) incubator; 24 h later, different concentrations of Ru-p(HH), Ru-p(MH), or Ru-p(MM) dissolved in Opti-MEM (100 μL) were added to the wells in triplicate. For each complex, one dark and one light plate were involved. Each plate was further incubated in the dark for 24 h (DLI). After that, one plate was irradiated with green light (520 nm) for 20 min at 37 °C for normoxia (dose = 13.1 J cm^–2) or 30 min for hypoxia (dose = 13.0 J cm^–2), while the other plate was kept in the dark. The cells were further incubated for another 2 days in normoxic or hypoxic conditions, respectively. Finally, 100 μL of cold trichloroacetic acid (10% w/v) was added to each well to fix the cells, and all plates were then transferred to a 4 °C refrigerator for 48 h before an SRB cell quantification end point assay was performed.[45] All experiments were conducted in biologically independent triplicate.
Hypoxic cell models in vitro: all cells were incubated and passaged in a dark hypoxic incubator (1% O2) for at least 2 weeks before all hypoxia studies. Adding chemicals to the cells had to be performed in air; however, the cell-growing medium was kept in the hypoxia incubator for at least 2 days before the addition to hypoxic cells, and all hypoxic light irradiations were performed inside the hypoxic incubator set at 1.0% O2.

O=C([O-])c1c(Cl)c(Cl)c(Cl)c(Cl)c1-c1c2cc(I)c(=O)c(I)c-2oc2c(I)c([O-])c(I)cc12.[Na+].[Na+] [Rose Bengal]
intracellular ROS production, normoxia (U87MG cells [1]): high amount of ROS

[Cl][Ru][Cl].c1ccc(-c2ccccn2)nc1.c1ccc(-c2ccccn2)nc1.c1ccc(-c2ccccn2)nc1 [[Ru(bpy)3]Cl2]
ΦΔ ref, singlet oxygen quantum yield of the reference [2]: 73%

N.N.[Cl][Pt][Cl] [cisplatin]
intracellular ROS production, normoxia (U87MG cells [1]): barely showed any ROS formation

Ac-HRGDH-NH2
λmax: 500 nm
λem [3]: 658 nm

Ac-MRGDH-NH2
λmax: 465 nm
λem [3]: 700 nm
relative emission intensity compared to Ru-p(HH) [4]: 2%

Ac-MRGDM-NH2
λmax: 400 nm
λem [3]: 700 nm
relative emission intensity compared to Ru-p(HH) [4]: 0.2%

[Ru(Ph2phen)2Cl2]
intracellular ROS production, normoxia (U87MG cells [1]): able to generate ROS in cells
PI, photoindex EC50,dark/EC50,light (U87MG cells [5]): 7.2
EC50 (U87MG cells [5]; 520 nm, 10.9 mW cm–2, 13.1 J cm–2, 20 min, DLI 24 h, n = 3, read-out: EC50, green light): 200 nM
EC50 (U87MG cells [5]; light dose 0, 24 h treatment, no wash, n = 3, read-out: EC50, dark): 1430 nM
